Test results as given in ChEMBL document CHEMBL1177886, “Synthesis and biological evaluation of a novel series of 2,2-bisaminomethylated aurone analogues as anti-inflammatory and antimicrobial agents” (Eur J Med Chem, 2010).
Values after ≈ are worked out from the molar mass of the structure shown.

Key:
Bacillus subtilis [1] = test: Antibacterial activity against Bacillus subtilis NCIM 2546 after 24 hrs by disc diffusion method; format: functional; details: for MIC: Bacillus subtilis, NCIM 2546, 24 h
Penicillium chrysogenum = test: Antifungal activity against Penicillium chrysogenum NCIM 707 after 72 hrs by disc diffusion method; format: functional; details: for MIC: Penicillium chrysogenum, NCIM 707, 72 h
Staphylococcus aureus = test: Antibacterial activity against Staphylococcus aureus NCIM 2120 after 24 hrs by disc diffusion method; format: functional; details: for MIC: Staphylococcus aureus, NCIM 2120, 24 h
Candida albicans = test: Antifungal activity against Candida albicans NCIM 3100 after 72 hrs by disc diffusion method; format: functional; details: for MIC: Candida albicans, NCIM 3100, 72 h
Aspergillus niger = test: Antifungal activity against Aspergillus niger NCIM 545 after 72 hrs by disc diffusion method; format: functional; details: for MIC: Aspergillus niger, NCIM 545, 72 h
Escherichia coli = test: Antibacterial activity against Escherichia coli NCIM 2065 after 24 hrs by disc diffusion method; format: functional; details: for MIC: Escherichia coli, NCIM 2065, 24 h
Trichoderma viride = test: Antifungal activity against Trichoderma viride TT after 72 hrs by disc diffusion method; format: functional; details: for MIC: Trichoderma viride, TT, 72 h
Proteus vulgaris = test: Antibacterial activity against Proteus vulgaris NCIM 2813 after 24 hrs by disc diffusion method; format: functional; details: for MIC: Proteus vulgaris, NCIM 2813, 24 h
Aspergillus fumigatus = test: Antifungal activity against Aspergillus fumigatus NCIM 902 after 72 hrs by disc diffusion method; format: functional; details: for MIC: Aspergillus fumigatus, NCIM 902, 72 h
Bacillus subtilis [2] = test: Antibacterial activity against Bacillus subtilis after 24 hrs by disc diffusion method
Klebsiella pneumoniae = test: Antibacterial activity against Klebsiella pneumoniae NCIM 5082 after 24 hrs by disc diffusion method; format: functional; details: for MIC: Klebsiella pneumoniae, NCIM 5082, 24 h
THP-1 [3] = test: Antiinflammatory activity in human THP1 cells assessed as inhibition of LPS-induced IL-6 production at 10 uM treated 30 mins before LPS challenge measured after 24 hrs by ELISA relative to control; format: functional
THP-1 [4] = test: Antiinflammatory activity in human THP1 cells assessed as inhibition of LPS-induced TNFalpha production at 10 uM treated 30 mins before LPS challenge measured after 24 hrs by ELISA relative to control; format: functional
[5] = Cytotoxicity against human THP-1 cells at 10 uM; details: THP-1, 10 µM

Compound | inhibition zone (IZ) (Bacillus subtilis [1]) | MIC (Bacillus subtilis [1]) | inhibition zone (IZ) (Penicillium chrysogenum) | MIC (Penicillium chrysogenum) | inhibition zone (IZ) (Staphylococcus aureus) | MIC (Staphylococcus aureus) | inhibition zone (IZ) (Candida albicans) | MIC (Candida albicans) | inhibition zone (IZ) (Aspergillus niger) | MIC (Aspergillus niger) | MIC (Escherichia coli) | inhibition zone (IZ) (Trichoderma viride) | MIC (Trichoderma viride) | inhibition zone (IZ) (Proteus vulgaris) | MIC (Proteus vulgaris) | inhibition zone (IZ) (Aspergillus fumigatus) | MIC (Aspergillus fumigatus) | inhibition zone (IZ) (Klebsiella pneumoniae) | MIC (Klebsiella pneumoniae) | inhibition at 10 µM (THP-1 [3]) | further results
COc1cc(OC)c2c(c1)OC(CN(C)C)(CN(C)C)C2=O | 14 mm | 50 µg/mL (≈ 162 µM) | 15 mm | 50 µg/mL (≈ 162 µM) | 14 mm | 50 µg/mL (≈ 162 µM) | 16 mm | 25 µg/mL (≈ 81.1 µM) | 16 mm | 50 µg/mL (≈ 162 µM) | 50 µg/mL (≈ 162 µM) | 15 mm | 25 µg/mL (≈ 81.1 µM) | 15 mm | 50 µg/mL (≈ 162 µM) | 18 mm | 25 µg/mL (≈ 81.1 µM) | 15 mm | 50 µg/mL (≈ 162 µM) |  | inhibition zone (IZ) (Bacillus subtilis [2]): 15 mm
CCN(C)CC1(CN(C)CC)Oc2cc(OC)cc(OC)c2C1=O |  | > 100 µg/mL | 15 mm | 50 µg/mL (≈ 149 µM) |  | > 100 µg/mL |  | > 100 µg/mL |  | > 100 µg/mL | > 100 µg/mL |  | > 100 µg/mL |  | > 100 µg/mL | 14 mm | 50 µg/mL (≈ 149 µM) |  | > 100 µg/mL |  | 
CCN(CC)CC1(CN(CC)CC)Oc2cc(OC)cc(OC)c2C1=O | 18 mm | 25 µg/mL (≈ 68.6 µM) | 15 mm | 50 µg/mL (≈ 137 µM) | 16 mm | 25 µg/mL (≈ 68.6 µM) | 16 mm | 25 µg/mL (≈ 68.6 µM) | 17 mm | 25 µg/mL (≈ 68.6 µM) | 25 µg/mL (≈ 68.6 µM) | 16 mm | 25 µg/mL (≈ 68.6 µM) | 17 mm | 25 µg/mL (≈ 68.6 µM) | 17 mm | 25 µg/mL (≈ 68.6 µM) | 17 mm | 25 µg/mL (≈ 68.6 µM) | 74% | inhibition at 10 µM (THP-1 [4]): 28%; Activity [5]: 37%; inhibition zone (IZ) (Bacillus subtilis [2]): 17 mm
COc1cc(OC)c2c(c1)OC(CN1CCN(C)CC1)(CN1CCN(C)CC1)C2=O | 14 mm | 50 µg/mL (≈ 119 µM) | 14 mm | 50 µg/mL (≈ 119 µM) |  | > 100 µg/mL |  | > 100 µg/mL | 14 mm | 50 µg/mL (≈ 119 µM) | 50 µg/mL (≈ 119 µM) |  |  | 16 mm | 25 µg/mL (≈ 59.7 µM) | 15 mm | 50 µg/mL (≈ 119 µM) |  | > 100 µg/mL | 97% | inhibition at 10 µM (THP-1 [4]): 76%; Activity [5]: 29%; inhibition zone (IZ) (Escherichia coli): 14 mm
COc1cc(OC)c2c(c1)OC(CN1CCCCC1)(CN1CCCCC1)C2=O | 18 mm | 25 µg/mL (≈ 64.3 µM) | 18 mm | 25 µg/mL (≈ 64.3 µM) | 16 mm | 25 µg/mL (≈ 64.3 µM) |  | > 100 µg/mL | 17 mm | 25 µg/mL (≈ 64.3 µM) | 25 µg/mL (≈ 64.3 µM) | 14 mm | 50 µg/mL (≈ 129 µM) | 15 mm | 50 µg/mL (≈ 129 µM) | 16 mm | 50 µg/mL (≈ 129 µM) | 18 mm | 25 µg/mL (≈ 64.3 µM) | 82% | inhibition at 10 µM (THP-1 [4]): 35%; Activity [5]: 21%
COc1cc(OC)c2c(c1)OC(CN1CCCC1)(CN1CCCC1)C2=O | 20 mm | 25 µg/mL (≈ 69.4 µM) | 16 mm | 25 µg/mL (≈ 69.4 µM) | 15 mm | 25 µg/mL (≈ 69.4 µM) | 14 mm | 50 µg/mL (≈ 139 µM) | 21 mm | 25 µg/mL (≈ 69.4 µM) | 25 µg/mL (≈ 69.4 µM) | 15 mm | 50 µg/mL (≈ 139 µM) | 22 mm | 25 µg/mL (≈ 69.4 µM) | 22 mm | 25 µg/mL (≈ 69.4 µM) | 20 mm | 25 µg/mL (≈ 69.4 µM) | 100% | inhibition at 10 µM (THP-1 [4]): 100%; Activity [5]: 83%; inhibition zone (IZ) (Bacillus subtilis [2]): 18 mm
CCN1CCN(CC2(CN3CCN(CC)CC3)Oc3cc(OC)cc(OC)c3C2=O)CC1 | 16 mm | 50 µg/mL (≈ 112 µM) | 16 mm | 25 µg/mL (≈ 56 µM) | 15 mm | 25 µg/mL (≈ 56 µM) | 13 mm | 50 µg/mL (≈ 112 µM) | 14 mm | 50 µg/mL (≈ 112 µM) | 50 µg/mL (≈ 112 µM) | 13 mm | 50 µg/mL (≈ 112 µM) | 14 mm | 50 µg/mL (≈ 112 µM) | 14 mm | 50 µg/mL (≈ 112 µM) | 17 mm | 25 µg/mL (≈ 56 µM) |  | inhibition zone (IZ) (Escherichia coli): 16 mm
OC(Cn1cncn1)(Cn1cncn1)c1ccc(F)cc1F [FLUCONAZOLE] |  |  | 24 mm | 25 µg/mL (≈ 81.6 µM) |  |  | 24 mm | 25 µg/mL (≈ 81.6 µM) | 24 mm | 25 µg/mL (≈ 81.6 µM) |  | 18 mm | 25 µg/mL (≈ 81.6 µM) |  |  | 21 mm | 25 µg/mL (≈ 81.6 µM) |  |  |  | 
COc1cc(OC)c2c(c1)OC(CN1CCOCC1)(CN1CCOCC1)C2=O | 16 mm | 25 µg/mL (≈ 63.7 µM) | 23 mm | 25 µg/mL (≈ 63.7 µM) | 15 mm | 50 µg/mL (≈ 127 µM) | 15 mm | 50 µg/mL (≈ 127 µM) | 24 mm | 25 µg/mL (≈ 63.7 µM) | 25 µg/mL (≈ 63.7 µM) | 15 mm | 25 µg/mL (≈ 63.7 µM) | 22 mm | 25 µg/mL (≈ 63.7 µM) | 18 mm | 25 µg/mL (≈ 63.7 µM) |  | > 100 µg/mL | 100% | inhibition at 10 µM (THP-1 [4]): 89%; Activity [5]: 66%; inhibition zone (IZ) (Escherichia coli): 16 mm
CCCCN(CCCC)CC1(CN(CCCC)CCCC)Oc2cc(OC)cc(OC)c2C1=O | 21 mm | 25 µg/mL (≈ 52.4 µM) | 24 mm | 25 µg/mL (≈ 52.4 µM) | 18 mm | 25 µg/mL (≈ 52.4 µM) | 17 mm | 25 µg/mL (≈ 52.4 µM) | 26 mm | 25 µg/mL (≈ 52.4 µM) | 25 µg/mL (≈ 52.4 µM) | 16 mm | 25 µg/mL (≈ 52.4 µM) | 22 mm | 25 µg/mL (≈ 52.4 µM) | 22 mm | 25 µg/mL (≈ 52.4 µM) | 21 mm | 25 µg/mL (≈ 52.4 µM) | 37% | inhibition at 10 µM (THP-1 [4]): 17%; Activity [5]: 65%; inhibition zone (IZ) (Bacillus subtilis [2]): 18 mm
